Results on two compounds are retold here after patent US20030143199A1, “Use of STAT-6 inhibitors as therapeutic agents” (priority 2001, published 2003).

Entries after “also recorded” stand apart in the source; their conditions may differ. Where only a bound is given, the exact number is not on record here.

Data set [1] concerns Chronic lymphocytic leukemia [CLL] cells. Nature of the data set: Protection against spontaneous apoptosis and fludarabine-induced apoptosis (PI negative / DiOC6 high cells by FACS). The class given is cell-based. As to conditions: one micromolar, 3 days culture, FIG. 2. As to the method: Chronic lymphocytic leukemia [CLL] cells were cultured for 3 days as described in Example 2. Some of the cultures were supplemented with one micromolar of PFT-open or PFT-closed, as indicated. In the experiment shown in the bottom panel of FIG. 2, some of the cultures also contained the cytotoxic adenine nucleoside analog fludarabine [abbreviated F-AraA]. Fludarabine is the first line treatment for CLL, and the toxicity of the drug is dependent upon the p53 pathway. To assess healthy, viable cells, staining was done with both PI, as indicated in Example 2, and with the mitochondrial dye DiOC6. Cells that were both PI negative and DIOC6 high were enumerated by FACS.

For data set [2], the system named is malignant lymphocytes from two patients with chronic lymphocytic leukemia [CLL]. In words: Effect of the p53 inhibitory compounds on B-CLL viability (PI exclusion by FACS, MTT), 3 days culture. Type of data set: cell-based. The following applies: FIG. 1. From the text:
The malignant lymphocytes from two patients with chronic lymphocytic leukemia [CLL] were isolated by ficoll-hypaque sedimentation and suspended at a density of 1 million cells per milliliter in RPMI 1640 medium supplemented with 10% fetal bovine serum. Two hundred microliter aliquots of cells were dispersed in the wells of culture plates containing the indicated final concentrations of either PFT-α (“PFT-open”) or IBT (PFT-closed). After 3 days culture, viable cells were enumerated by fluorescence-activated cell sorting [FACS] after staining with propidium iodide [PI]. Viable cells excluded the dye [open circles]. In addition, cell metabolism was assessed by the ability of the cells to […] the tetrazolium dye MTT [closed squares].

For data set [3], the system named is BEAS-2B human airway epithelial cells. Nature of the data set: Viability of treated cells at end of incubation in the 12/15-lipoxygenase promoter/luciferase STAT-6 reporter assay. The class given is cell-based. As to conditions: 10 μM for 1 hour, then IL-4 10 ng/ml, 16 hours. As to the method: The BEAS-2B human airway epithelial cells were transiently transfected with the human 12/15-lipoxygenase promoter/luciferase reporter gene. Cells were then incubated with the IBT analogs (FIG. 5) at 10 μM for 1 hour, followed by IL-4 (10 ng/ml). After 16 hours, luciferase was measured using a chemiluminometer. The STAT-6 induction was normalized using the B-gal results as “background.” The viability of the treated cells was visually verified at the end of the incubation, and found to be >95%. Results shown in FIG. 3 are the mean of duplicate measurements.
Human airway epithelial cells, BEAS-2B, were transiently transfected with the human 12/15-lipoxygenase promoter/luciferase reporter plasmid with and without a STAT6 expressing plasmid. The cells were incubated with 10 μM of STAT-6 (Control Sample 1); 10 μM STAT-6 (Sample 2); a mixture of STAT-6 and compound 8 (Sample 3); and compound 8 alone (Sample 4); for 1 hour. This was followed treatment with 10 ng/mL of IL-4 (except control). After 16 hours, luciferase was measured using a chemiluminometer. The STAT-6 induction was normalized using the β-gal results as “background”. The viability of the treated cells was visually verified at the end of the incubation, and found to be>95%. The results are illustrated in FIG. 7.

The subject of data set [4] is Human Hodgkin's lymphoma cells L1236. Nature of the data set: Effect of IBT and interferon on Hodgkin's lymphoma cells (CellTiter 96 MTS viability). As to conditions: 3, 5 or 7 days; IBT at doses up to 10 μM; FIG. 12. Type of data set: cell-based. On the procedure:
Human Hodgkin's lymphoma cells L1236 were incubated for 3, 5 or 7 days in complete RPMI1640 and 10% FBS. The cells were plated at 3×10^5 cells/mL.
The effect was more pronounced after 7 days of incubation.
The results are illustrated in FIG. 12. The y-axis represent the normalized viability when compared to control cells incubated with 0.1% DMSO with no interferon or IBT added, adjusted at 100%. The cell viability was determined using CellTiter 96 Aqueous One Solution Cell Proliferation Assay (Promega). (CellTiter 96 uses a novel tetrazolium compound (MTS) and an electron coupling reagent, phenazine ethosulfate.)

The nature of data set [5]: Cyclization of PFT-α to IBT in DMSO/water dilutions, reversed phase HPLC over time. The class given is physicochemical. As to conditions: for % cyclized to IBT: DMSO stock diluted with water, 25° C., reversed phase HPLC. As to the method: The preparation of PFT-α was accomplished as shown in Scheme 1 by reacting 4-methyl-2-bromoacetophenone with 2-amino-4,5,6,7-tetrahydrobenzothiazole. Upon recrystallization of the PFT-α from isopropyl alcohol, it was noticed that PFT-α readily ring-closed completely to the imidazo[2, 1-b]benzothiazole (IBT). Therefore, a subsequent investigation was undertaken to study the propensity of PFT-α to ring-close in protic solvents. […] Thus, PFT-α was dissolved in DMSO and water dilutions were made from this stock.

Regarding `Cc1ccc(-c2cn3c4c(sc3n2)CCCC4)cc1` [IBT], in data set [1], the “Effect on untreated CLL cells (spontaneous apoptosis)” value is on record as “nearly equivalent effects”. For the same compound, the “Protective effect on CLL cells treated with F-AraA (fludarabine)” value in data set [1] (with fludarabine, compared with PFT-α) was “less protective effects”. For the same compound, the “CLL survival / toxicity (viable cells by PI exclusion and MTT)” value in data set [2] is recorded as “non-toxic at concentrations up to 100 micromolar”. Further, the “Viability of the treated cells, visually verified at the end of the incubation” value in data set [3] is more than 95%. In addition, in data set [4], the “Anti-proliferative / growth-inhibitory effect on L1236 cells (normalized viability)” value is listed as “only a small anti-proliferative effect”.
`Cc1ccc(C(=O)Cn2c3c(sc2=N)CCCC3)cc1` [PFT-α]: the “Effect on untreated CLL cells (spontaneous apoptosis)” value in data set [1] was “nearly equivalent effects”. Further, the “% cyclized to IBT” value is 5% in data set [5] (0 h), 47% in data set [5] (12 h), 69% in data set [5] (24 h) and 92% in data set [5] (48 h). In addition, the “Stability / ring closure in protic solvents and aqueous solution (in words)” value in data set [5] (protic solvents, room temperature, aqueous solution) is “unstable in aqueous solution under in vivo conditions; also recorded: begins cyclizing at room temperature immediately upon dissolution in protic solvents”. Also, the “CLL survival / toxicity (viable cells by PI exclusion and MTT)” value in data set [2] is recorded as “dose-dependently reduced CLL survival”.
